Reference: patent US7803377B2, “Anti-DLL4 antibodies and methods using same” (Genentech, Inc., priority 2006, dated 2010)

How the values were obtained:
[1] = target: T1, DLL1 (Homo sapiens, UniProt O00548); experiment: FACS analysis of transiently transfected 293 cells; assay type: binding; parameters: transiently transfected with vector, full length DLL4, Jag1 or DLL1; expressed in transfected cells; host or cells: 293 cells, transient; conditions: DLL1 transfected 293 cells; antibody 2 μg/ml
T1 sequence (O00548 18-723): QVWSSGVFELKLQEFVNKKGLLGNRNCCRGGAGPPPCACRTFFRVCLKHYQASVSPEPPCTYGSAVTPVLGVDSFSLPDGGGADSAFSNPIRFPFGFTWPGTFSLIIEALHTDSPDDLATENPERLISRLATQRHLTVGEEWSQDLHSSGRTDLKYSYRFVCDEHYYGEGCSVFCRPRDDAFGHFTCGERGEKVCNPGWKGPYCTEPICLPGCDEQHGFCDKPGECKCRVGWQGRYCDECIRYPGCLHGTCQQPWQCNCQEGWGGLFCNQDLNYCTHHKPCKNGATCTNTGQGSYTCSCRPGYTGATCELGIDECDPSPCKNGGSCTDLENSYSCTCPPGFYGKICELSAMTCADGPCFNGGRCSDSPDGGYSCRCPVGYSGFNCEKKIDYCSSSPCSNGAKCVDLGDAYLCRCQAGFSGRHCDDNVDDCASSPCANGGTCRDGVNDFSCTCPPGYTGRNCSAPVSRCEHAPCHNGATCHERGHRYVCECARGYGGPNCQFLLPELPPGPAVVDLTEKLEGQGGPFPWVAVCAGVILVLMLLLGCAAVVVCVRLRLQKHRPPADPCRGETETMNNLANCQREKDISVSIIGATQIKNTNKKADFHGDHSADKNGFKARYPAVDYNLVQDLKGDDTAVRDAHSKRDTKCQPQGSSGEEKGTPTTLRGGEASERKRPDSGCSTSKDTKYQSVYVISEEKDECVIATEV
Source text: (§1) Expression of Jag1 and DLL1 was confirmed by the binding of recombinant rat Notch1-Fc (rrNotch1-Fc, middle panel) and recombinant rat Notch2-Fc (rrNotch2-Fc, bottom panel), respectively.

[2] = target: Jag1 (Homo sapiens, UniProt P78504); experiment: FACS analysis of transiently transfected 293 cells; assay type: binding; parameters: transiently transfected with vector, full length DLL4, Jag1 or DLL1; expressed in transfected cells; host or cells: 293 cells, transient; conditions: Jag1 transfected 293 cells; antibody 2 μg/ml
Source text: as §1

[3] = test system: mouse lymphoma EL4 cells; experiment: Tumor model EL4; assay type: in vivo; conditions: 5 mg/kg, IP, twice weekly after establishment of the tumors
Description: (§2) Tumor models. Beige nude female mice of 8- to 10-week-old were used. To obtain subcutaneous tumors, mice were injected with 0.1 ml cell suspension containing 50% matrigel (BD Bioscience) into the right posterior flank. 5×10^6 human colon cancer HM7 cells, 10×10^6 human colon carcinoma Colo205 cells, 10×10^6 human lung carcinoma Calu6 cells, 10×10^6 human lung carcinoma MV-522 cells, 10×10^6 mouse leukemia WEHI-3 cells, 10×10^6 mouse lymphoma EL4 cells, 10×10^6 human ovarian cancer SK-OV-3 X1 cells, 10×06 mouse lung cancer LL2 cells, 10×10^6 leukemia/lymphoma EL4 cells, or 10×10^6 non-small lung cancer H1299 cells were injected into each mouse. For human melanoma MDA-MB-435 model, mice were injected into the mammary fat pad with 0.1 ml cell (5×10^6) suspension containing 50% matrigel. […] For the following tumor models, each test mouse received a subcutaneous tumor fragment (1 mm^3) implanted in the right flank: non-small lung cancer SKMES-1, human breast cancer MX-1, human colorectal cancer SW620 and human adenocarcinoma LS174T. The tumor growth was quantitated by caliper measurements. Tumor volume (mm^3) was determined by measuring the length (l) and width (w) and calculating the volume (V=lw2/2). 10 to 15 animals were included in each group. Statistical comparison of treatment groups was performed using two-tailed Student's t-test. […]

[4] = test system: non-small lung cancer H1299 cells; experiment: Tumor model H1299; assay type: in vivo, mouse; conditions: 5 mg/kg, IP, twice weekly after establishment of the tumors
Description: as §2

[5] = target: DLL4 (Homo sapiens, UniProt Q9NR61); experiment: Notch ligand: Notch blocking ELISA (DLL4-AP / DLL4-His binding to coated rNotch1); parameters: amino acid 1-404 of DLL4 fused to human placenta alkaline phosphatase; made in house; host or cells: 293 cells, conditioned medium (DLL4-AP); conditions: purified DLL4-His, read-out: calculated IC50, blocking the binding of DLL4-His to coated rNotch1
DLL4, sequence (Q9NR61 27-404): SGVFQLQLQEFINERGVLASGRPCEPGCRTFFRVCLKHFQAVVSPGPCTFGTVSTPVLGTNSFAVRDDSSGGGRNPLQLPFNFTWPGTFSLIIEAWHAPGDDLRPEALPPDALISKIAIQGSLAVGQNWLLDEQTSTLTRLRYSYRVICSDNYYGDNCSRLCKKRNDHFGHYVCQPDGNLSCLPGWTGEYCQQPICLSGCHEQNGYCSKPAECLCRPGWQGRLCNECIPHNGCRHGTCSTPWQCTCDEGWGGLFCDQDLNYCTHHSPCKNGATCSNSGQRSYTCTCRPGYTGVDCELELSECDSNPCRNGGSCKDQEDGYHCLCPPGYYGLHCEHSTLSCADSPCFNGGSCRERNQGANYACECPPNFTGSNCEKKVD
Description: Conditioned medium containing DLL4-AP (amino acid 1-404 of DLL4 fused to human placenta alkaline phosphatase) was used in the assay. To prepare conditioned medium, 293 cells were transiently transfected with plasmid expressing DLL4-AP with Fugen6 reagent (Roche Molecular Biochemicals). Five days posttransfection, the conditioned medium was harvested, filtered and stored at 4° C. Purified antibodies titrated from 0.15 to 25 μg/ml were preincubated for 1 hr at room temperature with DLL4-AP conditioned medium at a dilution that conferred 50% maximally achievable binding to coated rrNotch1-Fc. The antibody/DLL4-AP mixture was then added to rrNotch1-Fc coated plate for 1 hr at room temperature, after which plates were washed several times in PBS. The bound DLL4-AP was detected using 1-Step PNPP (Pierce) as substrate and OD 405 nm absorbance measurement. […] The bound His-tagged ligands was detected with mouse anti-His mAb (1 μg/ml, Roche Molecular Biochemicals), biotinylated goat-anti-mouse (Jackson ImmunoResearch) and Streptavidin-AP (Jackson ImmunoResearch).

[6] = test system: human lung carcinoma MV-522 cells; experiment: Tumor model MV-522; assay type: in vivo, mouse; conditions: treatment initiated at ≧250 mm^3
Description: as §2

[7] = test system: human colon carcinoma Colo205 cells; experiment: Tumor model Colo205; assay type: in vivo, mouse
Description: as §2

[8] = test system: human colon cancer HM7 cells; experiment: Tumor model HM7; assay type: in vivo, mouse; conditions: treatment initiated at ≧250 mm^3; 10 mg/kg i.p. twice weekly; two weeks of treatment
Description: as §2

[9] = test system: human lung carcinoma Calu6 cells; experiment: Tumor model Calu6; assay type: in vivo, mouse; conditions: treatment initiated at ≧250 mm^3; 10 mg/kg i.p. twice weekly; two weeks of treatment
Description: as §2

[10] = test system: human breast cancer MX-1; experiment: Tumor model MX-1; assay type: in vivo, mouse; conditions: 5 mg/kg, IP, twice weekly after establishment of the tumors
Description: as §2

YW26.82: affinity matured anti-DLL4 monoclonal antibody; HVR-H1/H2/H3 SEQ ID NO:1, 8, 9; HVR-L1/L2/L3 SEQ ID NO:10, 11, 18
binding by FACS [1]: Significant binding was not detected
binding by FACS [2]: Significant binding was not detected
tumor growth, single agent [3]: inhibited tumor growth alone
tumor growth, single agent [4]: inhibited tumor growth alone
IC50 [5]: ~8 nM
tumor growth, single agent [6]: inhibited tumor growth
tumor growth, combination of YW26.82 and anti-VEGF ([6]; combination with anti-VEGF): most effective
tumor histology: EC density and viable tumor cell content ([7]; anti-DLL4 Mab treated Colo205 tumors): high EC density was associated with low viable tumor cell content
tumor volume ([7]; treatment initiated at ≧250 mm^3, 10 mg/kg i.p. twice weekly, two weeks of treatment): remained static
tumor volume [8]: remained static
tumor volume [9]: remained static
tumor growth, single agent [10]: inhibited tumor growth alone
